According to PubChem BioAssay AID463229 (Broad Institute, 2010):
Calls of active or inactive are those of the source.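 How the source made its calls: active means compounds raising the signal whose fitted half-maximal concentration is at or below their top tested dose (cut at about 25 µM in these data); inconclusive means flat fit at 30 to 70% activity, or a poor fit; inactive means the rest.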

Tested on: INS-1E rat beta cells, no cytokines, CellTiter-Glo ATP, 48 h
Experiment: ATP level change in INS-1E without cytokines, dose response, counter-screen for beta-cell apoptosis protection project, INS-1E rat cells, ATP luminescence, cherry pick (AID 463229)

Row | SMILES | AC50
1 | COc1cccc(/C=N/Nc2nc3ccccc3n3cnnc23)c1O | 7.23 µM
2 | NC(=S)N/N=C/c1ccccc1O | > 26 µM (inactive)
3 | Cc1nn(C)c(C)c1CN(C)S(=O)(=O)c1ccc2ccccc2c1 | 3.02 µM
4 | Cc1ccccc1NC1=C/C(=N\S(=O)(=O)c2ccc(C(=O)O)cc2)c2ccccc2C1=O | 12 µM
5 | Cc1ccc(-n2c(-c3ccc(Br)cc3)c[n+]3c2CCc2ccc4cccnc4c2-3)cc1 | 0.482 µM
6 | O=C(N/N=C/c1cc(Cl)ccc1O)c1ccccc1Br | 8.9 µM
7 | CCCc1sc(N/N=C/c2ccccn2)nc1-c1ccc(F)cc1 | 2.27 µM
8 | COc1ccc(CNCCC(c2ccc(OC(C)C)cc2)C(C)C)cc1OC (stereo not given) | 15 µM
9 | CCN(C1CCCCC1)S(=O)(=O)c1ccc(S(=O)(=O)NCc2ccncc2)cc1 | 6.3 µM
10 | COc1cc(C(=O)N/N=C(\C)c2ccccn2)cc(OC)c1OC | 10.6 µM
11 | CC1=C/C(=N\OS(=O)(=O)c2ccccc2)C(C)=CC1=O | 1.52 µM
12 | CCCC[C@@H](CN[C@H](C)CNC)NCC1CCC(C(C)(C)C)CC1 (stereo not given in full) | 15 µM
13 | CCCCCCCCCCOC(=O)Cn1c(COc2ccc(C)cc2)[n+](C)c2ccccc21 | 4 µM
14 | Cc1ccc(NC(=O)c2cc(S(=O)(=O)NCCC3=CCCCC3)ccc2F)cc1F | 6.58 µM
15 | COC(=O)C1=C(C)N(Cc2ccccc2)C(=NCc2cccc(Cl)c2)N[C@H]1c1cccc(F)c1 | 6.75 µM
16 | COc1ccc(C2/C=C\CN(C(=O)Nc3ccc(C(F)(F)F)cc3)CC(=O)N2Cc2ccc(F)cc2)cc1 (stereo not given) | 7.66 µM
17 | CCCOc1ccc(/C=N/Nc2cc(N3CCOCC3)ncn2)c(O)c1 | 8.02 µM
18 | CCOc1ccc(-n2c(-c3ccccc3)c[n+]3c2CCCCC3)cc1 | 0.85 µM
19 | COc1cc(CC(=O)Nc2nc(-c3ccc(F)c(F)c3)cs2)cc(OC)c1OC | 7.17 µM
20 | Cc1cc(N2CCCC2=O)cc(C)c1S(=O)(=O)NCCOc1ccc(C(C)(C)C)cc1 | 3 µM
21 | FC(F)(F)c1cccc(-c2nc3nc(Cl)c(Cl)nc3[nH]2)c1 | 3.13 µM
22 | O=C(CCC(=O)Nc1ccc(Br)cc1)N/N=C/c1ccccc1O | 14.6 µM
23 | CCc1ccc2[nH]c3nc(N/N=C/c4ccc(O)cc4O)nnc3c2c1 | 21.2 µM
24 | Brc1ccc(-[n+]2c(-c3ccccc3)cc(-c3ccccc3)cc2-c2ccccc2)cc1 | 2.4 µM
25 | CN1/C(=C\C=C2/SC(=S)NC2=O)C(C)(C)c2ccccc21 | 3.38 µM
26 | CCOC(=O)c1cnc(-n2nc(C)cc2C)nc1Nc1ccc(O)cc1 | 1.41 µM
27 | Cc1cccc(Cn2nnc3c2C(=O)c2ccccc2C3=O)c1 | 10.5 µM

Row | SMILES | AC50
28 | Cc1ccc(NC(=O)Nc2cccc([N+](=O)[O-])c2)cc1F | 8.06 µM
29 | COc1ccc2c(c1)c(/C=N/Nc1nc3ccccc3[nH]1)c(C)n2C | 14.7 µM
30 | Cc1ccc2nc(-c3ccccn3)c(NC3CCCC3)n2c1 | 16.6 µM
31 | COC(=O)C1=C(C)N(Cc2ccccc2)C(=NCc2ccccc2)N[C@H]1c1cccc(C(F)(F)F)c1 | 14.1 µM
32 | Cc1ccc(C(=O)OCn2ncc(Cl)c(Cl)c2=O)cc1 | 7.77 µM
33 | CCCCCCCCCn1c2c(c(=N)c3c1CCC3)CCC2 | < 0.195 µM
34 | CCCCCCOc1ccc(CN2CCN(C)CC2)cc1 | 11 µM
35 | COc1cnc(-c2ccccn2)nc1Sc1ccc(C)cc1 | 17.2 µM
36 | Cc1ccc2[nH]c(C(=O)N/N=C/c3ccccc3O)c(C)c2c1 | 2.33 µM
37 | Cc1onc(-c2c(Cl)cccc2Cl)c1C(=O)N/N=C(\N)COc1ccc(Cl)cc1 | 14.5 µM
38 | Cc1cc(C)c(CN2CCN(C(=O)Cn3cnc4c(OCc5ccccc5)ncnc43)CC2)c(C)c1 | 6.91 µM
39 | CN1c2ccccc2N(C)C1(C)c1ccccc1 | 0.604 µM
40 | O=C(NN=C(c1ccccc1)c1ccccn1)c1ccccc1 | 2.55 µM
41 | CC1CCC(C(C)C)C(OC(=O)Cn2c(-c3ccc(Cl)cc3)[n+](C)c3ccccc32)C1 (stereo not given) | 3.83 µM
42 | CC(C)(C)C(=O)Nc1ccc(C(=O)N/N=C/c2ccccc2OC(=O)c2ccc(Cl)cc2)cc1 | 11.8 µM
43 | Cc1cccc(CSC(Nc2ccc(F)cc2)=C(C#N)C#N)c1 | 5.85 µM
44 | CC(=O)N1CCc2cc(S(=O)(=O)NCCC3=CCCCC3)ccc21 | 7.63 µM
45 | COc1cc(/C=C/C(=O)c2ccc([N+](=O)[O-])o2)ccc1O | 3.91 µM
46 | Cc1cc(C)nc(N/N=C2/CCCC/C2=C\c2ccccc2)n1 | 3.72 µM
47 | Cc1cc(-n2c(SCC(=O)Nc3ccc(F)c(F)c3)nc3n[nH]c(C)c3c2=N)ccc1Cl | 5.84 µM
48 | Cc1[nH]n(-c2ccccc2)c(=O)c1/C=N\NC(=O)C1COc2ccccc2O1 (stereo not given) | 14 µM
49 | O=C(Nc1cc(S(=O)(=O)N2CCCCC2)ccc1Cl)c1ccccc1NS(=O)(=O)c1ccc(F)cc1 | 3.66 µM
50 | CCN(CC)c1ccc(/C=N/NC(=O)c2c(Cl)cnn2C)c(O)c1 | 1.5 µM
51 | c1ccc2c(c1)ncn2CCCCOc1ccc2c(c1)CCC2 | 7.37 µM
52 | COc1ccc(/C=C/c2cc(-c3ccc(C)cc3)o[n+]2C)cc1 | 0.91 µM
53 | COc1ccc(-c2cc(-c3nc4ccccn4c3NCc3ccccc3)ccc2OC)cc1 | 0.992 µM
54 | C=CCn1c(C)c(/C=C/c2cc[n+](C)cc2)c2ccccc21 | 5.99 µM

Row | SMILES | AC50
55 | COc1cccc(/C=N/NC(=O)C(=O)Nc2ccccc2OC(F)(F)C(F)F)c1O | 6.44 µM
56 | CCN(CC)CCNC(=O)c1ccc(NC(=O)c2cn(-c3ccccc3)nc2-c2cccs2)cc1 | 15.7 µM
57 | COc1ccc(C(=O)NC(=S)NNC(=O)c2cnccn2)cc1OC | 7.95 µM
58 | Cc1ccc(-c2cn(-c3ccc(SC(F)F)cc3)c3[n+]2CCC3)cc1 | 5.91 µM
59 | COc1ccc(-n2c(-c3ccc(Br)cc3)c[n+]3c2CCCCC3)cc1 | 1.06 µM
60 | O=C(N/N=C/c1cc(Br)cc(Cl)c1O)c1ccc2c(c1)OCO2 | 11 µM
61 | CCN(CC)CCN1c2ccccc2Sc2ccc3ccccc3c21 | 18.1 µM
62 | C/C(=N\NC(=O)c1cccc(Br)c1)c1ccccn1 | 1.32 µM
63 | COc1cc(CNC(C)c2ccccc2)cc(Br)c1OCc1ccc(F)cc1 (stereo not given) | 13.8 µM
64 | Cc1ccc(-c2c[n+](Cc3ccc(Cl)c(Cl)c3)c3n2CCC3)cc1 | 4.72 µM
65 | O=c1cnnc(N/N=C/c2ccccn2)[nH]1 | 3.93 µM
66 | Cc1ccc(S(=O)(=O)NCc2ccncc2)c(C)c1C | 3.83 µM
67 | O=C(Nc1cccc(C(F)(F)F)c1)Nc1ccc(N2CCCC2)c(S(=O)(=O)Nc2ccccc2Cl)c1 | 4.27 µM
68 | Cc1cccc(Nc2nc(N)c([N+](=O)[O-])c(N3CC(C)CC(C)C3)n2)c1 (stereo not given) | 14.8 µM
69 | CN1/C(=C\C(=O)COC(=O)c2ccc(O)c(O)c2)C(C)(C)c2ccccc21 | 10.1 µM
70 | N=c1c2c(-c3ccccc3)c(-c3ccccc3)n(Cc3ccco3)c2ncn1CCCN1CCOCC1 | 16.2 µM
71 | Cc1ccc2c(c1)c(/C=C/c1cc[n+](C)cc1)c(C)n2C | 3.97 µM
72 | CC(C)(C)c1ccc(/C=C(\c2nc3ccccc3[nH]2)S(=O)(=O)c2ccccc2)cc1 | 7.37 µM
73 | O=C(CCC(=O)Nc1ccc(Cl)cc1Cl)N/N=C/c1ccc([N+](=O)[O-])o1 | 13.8 µM
74 | O=C(CCC1CCCC1)Nc1ccc(C(=O)NCc2cccnc2)cc1 | < 0.195 µM
75 | Cc1cccc(-n2c(C)cc(/C=N/n3cnnc3)c2C)c1 | 14.5 µM
76 | Cc1ccc2nc(NC(=O)c3ccccn3)sc2c1 | 9.36 µM
77 | COc1ccc(C)cc1Nc1n[n+](-c2ccccc2)c(-c2ccc(OC)c(OC)c2OC)s1 | 14.5 µM
78 | CCCCCCn1c2c(c(=N)c3c1CCC3)CCC2 | 1.88 µM
79 | CC1CC(C)CN(S(=O)(=O)c2ccc(C(=O)NCCCn3ccnc3)cc2)C1 (stereo not given) | 0.577 µM
80 | Cc1ncc(CO)c(/C=N/Nc2ccc(C(F)(F)F)cn2)c1O | 5.17 µM
